Structures can show the parent of a compound that is named as a salt.
Target: T1, histamine H3 receptor (Homo sapiens, UniProt Q9Y5N1)
T1 construct: expressed in transfected cells; host or cells: CHO K1 cells carrying pSwitch, transfected with pGeneH3 and induced with mifepristone; clone 3H3; membrane preparation
Test: Histamine H3 functional antagonist assay ([35S]GTPγS SPA on membranes)
Type: biochemical
Settings: not given
Procedure: A membrane preparation containing histamine H3 receptors may be prepared in accordance with the following procedures:
Ligated DNA was transformed into competent DH5α E. coli host bacterial cells and plated onto Luria Broth (LB) agar containing Zeocin™ (an antibiotic which allows the selection of cells expressing the sh ble gene which is present on pGene and pSwitch) at 50 μg ml^−1. Colonies containing the religated plasmid were identified by restriction analysis. DNA for transfection into mammalian cells was prepared from 250 ml cultures of the host bacterium containing the pGeneH3 plasmid and isolated using a DNA preparation kit (Qiagen Midi-Prep) as per manufacturers guidelines (Qiagen).
CHO K1 cells previously transfected with the pSwitch regulatory plasmid (InVitrogen) were seeded at 2×10e6 cells per T75 flask in Complete Medium, containing Hams F12 (GIBCOBRL, Life Technologies) medium supplemented with 10% v/v dialysed foetal bovine serum, L-glutamine, and hygromycin (100 μg ml^−1), 24 hours prior to use. Plasmid DNA was transfected into the cells using Lipofectamine plus according to the manufacturers guidelines (InVitrogen). 48 hours post transfection cells were placed into complete medium supplemented with 500 μg ml^−1 Zeocin™.
10-14 days post selection 10 nM Mifepristone (InVitrogen), was added to the culture medium to induce the expression of the receptor.
Approximately 1×10e7 cells were examined for receptor expression by staining with a rabbit polyclonal antibody, 4a, raised against the N-terminal domain of the histamine H3 receptor, incubated on ice for 60 minutes, followed by two washes in sorting medium.
Following two further washes with Sorting Medium, cells were filtered through a 50 μm Filcon™ (BD Biosciences) and then analysed on a FACS Vantage SE Flow Cytometer fitted with an Automatic Cell Deposition Unit. […] Positively stained cells were sorted as single cells into 96-well plates, containing Complete Medium containing 500 μg ml^−1 Zeocin™ and allowed to expand before reanalysis for receptor expression via antibody and ligand binding studies.
All steps of the protocol are carried out at 4° C. and with pre-cooled reagents. The cell pellet is resuspended in 10 volumes of buffer A2 containing 50 mM N-2-hydroxyethylpiperazine-N′-2-ethanesulfonic acid (HEPES) (pH 7.40) supplemented with […] leupeptin (acetyl-leucyl-leucyl-arginal; Sigma L2884), 25 μg/ml bacitracin (Sigma B0125), 1 mM ethylenediamine tetra-acetic acid (EDTA), 1 mM phenylmethylsulfonyl fluoride (PMSF) and 2×10e-6M pepstain A (Sigma). The cells are then homogenised by 2×15 second bursts in a 1 litre glass Waring blender, followed by centrifugation at 500 g for 20 minutes. The supernatant is then spun at 48,000 g for 30 minutes. The pellet is resuspended in 4 volumes of buffer A2 by vortexing for 5 seconds, followed by homogenisation in a Dounce homogeniser (10-15 strokes). At this point the preparation is aliquoted into polypropylene tubes and stored at −70° C. […]
The plate is then incubated on a shaker at room temperature for 30 minutes followed by centrifugation for 5 minutes at 1500 rpm. The plate is read between 3 and 6 hours after completion of centrifuge run in a Wallac Microbeta counter on a 1 minute normalised tritium count protocol. Data is analysed using a 4-parameter logistic equation. Basal activity used as minimum i.e. histamine not added to well.

T1 sequence (Q9Y5N1 whole entry): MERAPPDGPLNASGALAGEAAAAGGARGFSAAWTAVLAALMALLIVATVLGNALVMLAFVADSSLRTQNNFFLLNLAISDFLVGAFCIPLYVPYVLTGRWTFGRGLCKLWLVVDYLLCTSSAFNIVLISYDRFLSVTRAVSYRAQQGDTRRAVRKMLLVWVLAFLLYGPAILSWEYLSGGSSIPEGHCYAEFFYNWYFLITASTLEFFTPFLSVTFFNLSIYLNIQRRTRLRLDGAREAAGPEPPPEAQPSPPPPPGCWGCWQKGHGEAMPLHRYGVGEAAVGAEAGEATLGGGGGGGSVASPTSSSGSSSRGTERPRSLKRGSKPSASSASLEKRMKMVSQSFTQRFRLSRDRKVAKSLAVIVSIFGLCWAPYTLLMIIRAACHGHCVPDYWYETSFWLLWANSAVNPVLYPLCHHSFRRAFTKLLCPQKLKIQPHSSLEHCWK

Row | SMILES | Kb [nM]
1 | O=C(c1ccc(OCCCN2CCCCC2)cc1)N1CCN(C(=O)C2CCCCCC2)CC1 [Example E89, 1-[4-(3-Piperidin-1-ylpropoxy)benzoyl]-4-(cycloheptanecarbonyl)-piperazine Hydrochloride] | < 3.16

Same assay, conditions: membranes of CHO K1 clone 3H3 expressing human histamine H3; histamine 0.3 μM; guanosine 5'[γ35-S]thiotriphosphate 0.38 nM; read-out: pKb (converted)

Row | Kb [nM] | SMILES
2 | < 3.16 | O=C(c1ccc(OCCCN2CCCCC2)cc1)N1CCN(C(=O)c2cccs2)CC1 [Example E59, 1-[4-(3-Piperidin-1-ylpropoxy)benzoyl]-4-(thiophen-2-carbonyl)-piperazine Hydrochloride]
3 | < 3.16 | O=C(N[C@H]1CCN(C(=O)c2ccc(OCCCN3CCCCC3)cc2)C1)c1ccccc1 [Example E156, (S)-N-[4-(3-Piperidin-1-ylpropoxy)benzoyl]-3-benzamidopyrrolidine Dihydrochloride]
4 | < 3.16 | O=C(c1ccc(OCCCN2CCCCC2)cc1)N1CCC2(CC1)CN(c1ccccc1)C(=O)CO2 [Example E159, 4-Phenyl-9-[4-(3-piperidin-1-ylpropoxy)benzoyl]-1-oxa-4,9-diazaspiro-[5,5]-undecan-3-one hydrochloride]
5 | < 3.16 | O=C(c1ccc(OCCCN2CCCCC2)cc1)N1CCN(C(=O)N2CCCC2)CC1 [Example E88, 1-[4-(3-Piperidin-1-ylpropoxy)benzoyl]-4-(pyrrolidine-1-carbonyl)-piperazine Hydrochloride]
6 | < 3.16 | O=C(c1ccc(OCCCN2CCCCC2)cc1)N1CCN(c2ccccc2)CC1 [Example E1, N-[4-(3-Piperidin-1-ylpropoxy)benzoyl]-4-phenylpiperazine dihydrochloride]
7 | < 3.16 | O=C(c1ccc(OCCCN2CCCCC2)cc1)N1CCN(C(=O)C2CCCCC2)CC1 [Example E57, 1-[4-(3-Piperidin-1-ylpropoxy)benzoyl]-4-(1-cyclohexanecarbonyl)-piperazine hydrochloride]
8 | < 3.16 | O=C1NC2(CCN(C(=O)c3ccc(OCCCN4CCCCC4)cc3)CC2)CN1Cc1ccccc1 [Example E160, 3-Benzyl-8-[4-(3-piperidin-1-ylpropoxy)benzoyl]-1,3,8-triaza-spiro[4.5]-decan-2-one]
9 | < 3.16 | O=C(c1ccc(OCCCN2CCCCC2)cc1C(F)(F)F)N1CCCCC1 [Example E155, N-[2-Trifluoromethyl-4-(3-Piperidin-1-ylpropoxy)benzoyl]piperidine Hydrochloride]
10 | < 3.16 | O=C(c1ccc(OCCCN2CCCCC2)cc1)N1CCCCC1 [Example E149, N-[4-(3-Piperidin-1-ylpropoxy)benzoyl]piperidine Hydrochloride]
11 | < 3.16 | O=C(N[C@H]1CCN(C(=O)c2ccc(OCCCN3CCCCC3)cc2)C1)c1cccc2ccccc12 [Example E158, (S)-N-[4-(3-Piperidin-1-ylpropoxy)benzoyl]-3-(naphthalene-1-carboxamidopyrrolidinedihydrochloride]
12 | < 3.16 | C[C@@H]1CN(C(=O)c2ccc(OCCCN3CCCCC3)cc2)C[C@H](C)N1C(=O)c1ccccc1 [Example E100]
